The source of these data is patent US20070244138A1, “Mercaptoimidazoles as Ccr2 Receptor Antagonists” (JANSSEN PHARMACEUTICA N.V., priority 2004, published 2007).

One data set deals with T1, CCR2 receptor (Homo sapiens, UniProt P41597).
T1 construct: host or cells: THP-1 (human monocytic cell line)
T1 sequence (P41597 1-360 isoform P41597-2): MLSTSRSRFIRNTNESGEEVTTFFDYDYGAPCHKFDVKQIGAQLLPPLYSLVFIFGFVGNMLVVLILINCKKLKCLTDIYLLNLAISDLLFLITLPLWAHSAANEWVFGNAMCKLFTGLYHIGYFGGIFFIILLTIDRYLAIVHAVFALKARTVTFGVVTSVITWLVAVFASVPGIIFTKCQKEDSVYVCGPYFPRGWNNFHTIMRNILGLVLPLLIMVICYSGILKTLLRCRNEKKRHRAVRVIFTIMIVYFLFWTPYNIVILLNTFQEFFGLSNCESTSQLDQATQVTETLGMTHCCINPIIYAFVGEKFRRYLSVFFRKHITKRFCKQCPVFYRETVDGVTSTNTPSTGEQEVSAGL
Kind of data set: Inhibition of MCP-1 induced Ca-flux in human THP-1 cells. The format is cell-based. The note with it: -log IC50 (molar), inhibition of specific MCP-1 induced Ca2+ flux, 10^-7 M hMCP-1, 20 min pre-incubation, FLIPR. How it is done: D. Pharmacological Example Inhibition of MCP-1 Induced Ca-Flux in Human THP-1 Cells
MCP-1 binding to the CCR2 receptor induces a rapid and transient intracellular release of Ca^2+ (secondary messenger) in several cell lines (Charo et al, PNAS 1994). Free Ca^2+ levels can be measured using a Ca^2+ sensitive dye. When the CCR2 receptor is blocked with a CCR2 receptor antagonist, the MCP-1 induced release of Ca^2+ is inhibited.
Human THP-1 cells (monocytic cell line, ATCC TIB-202) were cultured in RPMI 1640 medium supplemented with 10% fetal calf serum (FCS), 1% L-Glutamine, penicillin (50 U/ml) and streptomycin (50 μg/ml) (all GIBCO BRL, Gent). After centrifugation, cells were loaded for 30 minutes with the Ca^2+ sensitive fluorescent dye Fluo-3 AM (Molecular Probes, Leiden, Netherlands) (2 million cells/ml in RPMI medium containing 4 μM Fluo-3 AM, 20 mM HEPES, 0.1% Bovine Serum Albumin (BSA) and 5 mM probenecid). Excess dye was removed by 3-fold washing with buffer (5 mM HEPES, 140 mM NaCl, 1 mM MgCl2, 5 mN KCl, 10 mM glucose, 2.5 mM probenecid, 1.25 mM CaCl2, 0.1% BSA; all further incubations were done in this buffer). Cells were plated at a density of 150 000 cells/well in dark-wall 96-well plates (Costar, Cambridge, Mass.) and sedimented by centrifugation (1 minute). The cells were pre-incubated for 20 minutes with test compound Then, 10^−7 M hMCP-1 (Bachem, Bubendorf, Switserland) was added. Changes in intracellular free Ca^2+ concentration were measured using the Fluorescent Imaging Plate Reader (FLIPR, Molecular Devices, Munchen, Germany). Fluorescence was recorded every second from 10 seconds before the addition of the MCP-1 till 2 minutes after the addition (first minute: 60 records with 1 second intervals, second minute 20 records with 3 second intervals). The maximal fluorescence obtained during this time frame was used for further calculations.
Table 4 reports pIC50 values obtained in the above-described test for compounds of formula (I). pIC50 defines −log IC5o wherein IC50 is the molar concentration of the test compound which inhibits 50% of specific MCP-1 induced Ca^2+ flux.
What is called IC50 is the concentration needed to halve the response being measured. Low values mean inhibition by little substance, high ones a need for much substance. `CCC(c1ccc(Cl)c(Cl)c1)n1c(-c2ccnc(N)n2)c[nH]c1=S` (stereo not shown) [Compound 1] gave an IC50 of 35.5 nM.

For `CCC(c1ccc(Cl)c(Cl)c1)n1c(-c2nc(C)no2)cnc1S` (stereo not shown) [Compound 5], the IC50 was 200 nM.

As to `CCC(c1ccc(C(F)(F)F)c(F)c1)n1c(-c2nc(C)no2)c[nH]c1=S` (stereo not shown) [Compound 26], half-maximal inhibition (IC50) required 219 nM. Compound `CCC(c1ccc(Cl)c(Cl)c1)n1c(-c2ccnc(NCCO)n2)c[nH]c1=S` (stereo not shown) [Compound 21] had an IC50 of 34.7 nM. In turn, `CCC(c1ccc(Cl)c(Cl)c1)n1c(-c2cc[nH]n2)c[nH]c1=S` (stereo not shown) [Compound 11] gave an IC50 of 724 nM. `CCC(c1ccc(Cl)c(Cl)c1)n1c(-c2ccnc(N3CCNCC3)n2)c[nH]c1=S` (stereo not shown) [Compound 24] gave an IC50 of 631 nM. Still for that read-out and setting: in the case of `CCC(c1ccc(Cl)c(Cl)c1)n1c(-c2nnc(N)o2)cnc1S` (stereo not shown) [Compound 9] it was 33.1 nM; in that of `CCC(c1ccc(Cl)c(Cl)c1)n1c(-c2ccnc(NC)n2)c[nH]c1=S` (stereo not shown) [Compound 20], 41.7 nM. On the same count and under the same terms, in the case of `CCC(c1ccc(Cl)c(Cl)c1)n1c(-c2nnc(C)o2)c[nH]c1=S` (stereo not shown) [Compound 14] it was 417 nM; in that of `CCC(c1ccc(Cl)c(Cl)c1)n1c(-c2ccnc(C)n2)c[nH]c1=S` (stereo not shown) [Compound 19], 832 nM.

In turn, `CCC(c1ccc(Cl)c(Cl)c1)n1c(-c2ncn[nH]2)c[nH]c1=S` (stereo not shown) [Compound 12] gave an IC50 of 398 nM.

A further data set concerns the target T2, CCR2B (Homo sapiens, UniProt P41597).
T2 construct: expressed in transfected cells; host or cells: CHO cells (membrane preparation)
T2 sequence (P41597 1-360 isoform P41597-2): T1 sequence (P41597 1-360 isoform P41597-2)
Briefly: 125I-MCP-1 radioligand binding assay, membranes from CCR2B-transfected CHO cells. The note with it: competition with 0.15 nM 125I-MCP-1, 90 minutes at 25° C.; Cheng-Prusoff. On the procedure:
Radioligand Binding Assay.
^125I-MCP binding assays performed in 96-well plates with 40 μg of protein per well. Compounds were dissolved and diluted in DMSO to 100× dilutions. A 10× concentration range of compounds was prepared in binding buffer (10% DSMO). Competition binding assay contained the following components in a total volume of 250 μl of the appropriate compound dilution (final concentration of 1% DMSO), 200 μl membranes from CCR2B-transfected CHO cells dissolved in binding buffer and 25 μl ^125I-MCP-1(Bolton and Hunter labeled, Amersham, specific activity=2000 Ci/mmol, 0.15 nM final). Binding buffer was composed of 25 mM HEPES, 5 mM MgCl2, 1 mM CaCl2, 0.5% protease-free bovine serum albumin, pH 7.4. After 90 minutes incubation at 25° C., membranes were harvested on GF/B filters -presoaked in 0.5% polyethylenimene, followeded by washing with buffer containing 25 mM HEPES, 5 mM MgCl2, 1 mM CaCl2, […], pH 7.4. Filter bound radioactivity was determined by liquid scintillation counting. EC50 values (μM) and Ki values (μM) were calculated. […] EC50 values and Ki values were calculated using non-linear regression in Graphpad Prism. […]
Usually Ki stands for a dissociation constant, usually derived from enzyme kinetics or from competition with a known ligand. A high value points to lower affinity. In turn, `CCC(c1ccc(Cl)c(Cl)c1)n1c(-c2ccnc(N)n2)c[nH]c1=S` (stereo not shown) [Compound 1] gave a Ki of 170 nM.

Test system in another data set: not given
Assay: not given
Details: not given
A word on the melting point: it is the temperature, or range, at which the solid turns liquid. For `CCCC(c1ccc(F)c(F)c1)n1c(-c2nnc(C)o2)c(COC)[nH]c1=S` (stereo not shown) [Compound 10], the melting point is 97.8 to 97.9 °C.
